{"source": "patent US9597407B2", "about": "“Targeted antimicrobial moieties” (C3 Jian, Inc., priority 2009, dated 2017)", "tested_on": "bacteria", "test": "Binding of targeting peptides to microorganisms (Table 3)", "details": "preferably 1x PBS", "key": {"[1]": {"details": "peptide binding in aqueous buffers that varied depending on peptide solubility"}, "[2]": {"details": "peptide binding in aqueous buffers varied by peptide solubility"}, "[3]": {"details": "microorganism the targeting peptide binds, binding in aqueous buffers that varied with peptide solubility"}, "[4]": {"details": "microorganism bound by the targeting peptide, binding in aqueous buffers chosen by peptide solubility"}}, "note": "Entries after “also recorded” stand apart in the source; their conditions may differ."}
{"substance": "PF-509 (EAKVQAKGEQIACNNY; Peptide with targeting and/or antimicrobial activity)", "values": [{"measurement": "Target(s) (microorganisms bound by the targeting peptide)", "setting": "[1]", "result": "S. mutans; also recorded: B. subtilis; also recorded: E. coli"}]}
{"substance": "1T-185 (HYHFLLEFGFHKGDYLE; Peptide with targeting and/or antimicrobial activity) [Peptide 1T-185]", "values": [{"measurement": "Target(s) (microorganism bound by the targeting peptide)", "setting": "[2]", "result": "A. naeslundii; also recorded: F. nucleatum; also recorded: P. gingivalis"}]}
{"substance": "1T-219 (RNINVSATFITEKSLV; Peptide with targeting and/or antimicrobial activity) [Peptide 1T-219]", "values": [{"measurement": "Target(s)", "setting": "[3]", "result": "S. sanguinis"}]}
{"substance": "PF-206 (KLRSASKKSLQEKSCGIMPEKPAG; Peptide with targeting and/or antimicrobial activity)", "values": [{"measurement": "Target(s)", "setting": "[4]", "result": "M. luteus; also recorded: C. albicans; also recorded: C. jeikeium; also recorded: C. jejuni"}]}
{"substance": "PF-236 (KEIRTATVAELNAKRRLTSAEQALAEVS; Peptide with targeting and/or antimicrobial activity)", "values": [{"measurement": "Target(s)", "setting": "[4]", "result": "S. mutans; also recorded: S. epidermidis; also recorded: E. coli; also recorded: C. albicans; also recorded: S. pneumoniae; also recorded: E. faecalis"}]}
{"substance": "1T-125 (DAITGGNPPLSDTDGLRP; Peptide with targeting and/or antimicrobial activity) [Peptide 1T-125]", "values": [{"measurement": "Target(s) (microorganism bound by the targeting peptide)", "setting": "[2]", "result": "S. epidermidis; also recorded: S. gordonii; also recorded: S. mutans; also recorded: S. oralis"}]}
{"substance": "1T-42 (TVLDWLSLALATGLFVYLLVALLRADRA; Peptide with targeting and/or antimicrobial activity) [Peptide 1T-42]", "values": [{"measurement": "Target(s) (microorganism bound by the targeting peptide)", "setting": "[2]", "result": "S. aureus; also recorded: S. epidermidis; also recorded: C. xerosis; also recorded: C. striatum; also recorded: P. aeruginosa"}]}
{"substance": "1T-199 (RAGRIKKLSQKEAEPFEN; Peptide with targeting and/or antimicrobial activity) [Peptide 1T-199]", "values": [{"measurement": "Target(s)", "setting": "[3]", "result": "S. sanguinis"}]}
{"substance": "PF-724 (CYRFLTPKRPTRIS; Peptide with targeting and/or antimicrobial activity)", "values": [{"measurement": "Target(s) (microorganism bound by the targeting peptide)", "setting": "[1]", "result": "L. pneumophila"}]}
{"substance": "1T-76 (EMRLSKFFRDFILWRKK; Peptide with targeting and/or antimicrobial activity) [Peptide 1T-76]", "values": [{"measurement": "Target(s) (microorganism bound by the targeting peptide)", "setting": "[2]", "result": "S. pneumoniae"}]}
{"substance": "1T-100 (LDPLEPRIAPPGDRSHQGAPACHRDPLRGRSARDAER; Peptide with targeting and/or antimicrobial activity) [Peptide 1T-100]", "values": [{"measurement": "Target(s) (microorganism bound by the targeting peptide)", "setting": "[2]", "result": "S. gordonii; also recorded: S. mitis; also recorded: S. mutans"}]}
{"substance": "PF-767 (DGKQGEPVALKPTDN; Peptide with targeting and/or antimicrobial activity)", "values": [{"measurement": "Target(s) (microorganism bound by the targeting peptide)", "setting": "[1]", "result": "S. epidermidis and M. luteus and E. coli and MRSA and S. pneumoniae and E. faecalis and C. jeikeium"}]}
{"substance": "PF-C093 (EKLGTMV; Peptide with targeting and/or antimicrobial activity)", "values": [{"measurement": "Target(s) (microorganism bound by the targeting peptide)", "setting": "[1]", "result": "A. naeslundii; also recorded: F. nucleatum; also recorded: S. mutans"}]}
{"substance": "1T-10 (SPAGLPGDGDEA; Peptide with targeting and/or antimicrobial activity) [Peptide 1T-10]", "values": [{"measurement": "Target(s) (microorganism bound by the targeting peptide)", "setting": "[2]", "result": "M. xanthus"}]}
{"substance": "PF-367 (TKTPGTFTPGTGIQKTAVPL; Peptide with targeting and/or antimicrobial activity)", "values": [{"measurement": "Target(s)", "setting": "[4]", "result": "B. subtilis"}]}
{"substance": "PF-508 (VSTFGKVVKVVDEK; Peptide with targeting and/or antimicrobial activity)", "values": [{"measurement": "Target(s) (microorganisms bound by the targeting peptide)", "setting": "[1]", "result": "S. mutans"}]}
{"substance": "PF-712 (QIYRHVHKVQAKSANLRLY; Peptide with targeting and/or antimicrobial activity)", "values": [{"measurement": "Target(s) (microorganism bound by the targeting peptide)", "setting": "[1]", "result": "S. mutans; also recorded: E. coli"}]}
{"substance": "1T-107 (SPVPRFTAVGGVSRGSP; Peptide with targeting and/or antimicrobial activity) [Peptide 1T-107]", "values": [{"measurement": "Target(s) (microorganism bound by the targeting peptide)", "setting": "[2]", "result": "A. naeslundii; also recorded: S. epidermidis; also recorded: S. gordonii; also recorded: S. mitis; also recorded: S. mutans; also recorded: S. oralis; also recorded: S. salivarious; also recorded: S. sanguinis"}]}
{"substance": "1T-48 (KLQVHHGRATHTLLLQPPLCAPGTIR; Peptide with targeting and/or antimicrobial activity) [Peptide 1T-48]", "values": [{"measurement": "Target(s) (microorganism bound by the targeting peptide)", "setting": "[2]", "result": "S. aureus; also recorded: S. epidermidis; also recorded: C. jeikeium; also recorded: C. xerosis; also recorded: C. striatum; also recorded: P. aeruginosa"}]}
{"substance": "1T-58 (CDDLHALERAGKLDALLSA; Peptide with targeting and/or antimicrobial activity) [Peptide 1T-58]", "values": [{"measurement": "Target(s) (microorganism bound by the targeting peptide)", "setting": "[2]", "result": "P. aeruginosa"}]}
{"substance": "PF-141 (VVRRFQGM; Peptide with targeting and/or antimicrobial activity)", "values": [{"measurement": "Target(s)", "setting": "[4]", "result": "S. epidermidis and M. luteus and C. albicans and MRSA and C. jeikeium"}]}
{"substance": "PF-134 (GKAMKRQDCSAL; Peptide with targeting and/or antimicrobial activity)", "values": [{"measurement": "Target(s)", "setting": "[4]", "result": "S. epidermidis; also recorded: C. jeikeium"}]}
{"substance": "1T-250 (LVQGDTILIENHVGTPVKDDGKDCLIIREADVLAVVND; Peptide with targeting and/or antimicrobial activity) [Peptide 1T-250]", "values": [{"measurement": "Target(s)", "setting": "[3]", "result": "S. mitis; also recorded: S. mutans; also recorded: S. oralis"}]}
{"substance": "1T-94 (DQVAHSGDMLVQARRRDS; Peptide with targeting and/or antimicrobial activity) [Peptide 1T-94]", "values": [{"measurement": "Target(s) (microorganism bound by the targeting peptide)", "setting": "[2]", "result": "S. mitis; also recorded: S. mutans; also recorded: S. oralis"}]}
{"substance": "PF-230 (EDKPTNTIQEIKPVKWQ; Peptide with targeting and/or antimicrobial activity)", "values": [{"measurement": "Target(s)", "setting": "[4]", "result": "S. mutans"}]}
{"substance": "PF-732 (DRPSQTTHHTLSSSRITGPS; Peptide with targeting and/or antimicrobial activity)", "values": [{"measurement": "Target(s) (microorganism bound by the targeting peptide)", "setting": "[1]", "result": "E. coli"}]}
{"substance": "1T-256 (KGKSLMPLLKQINQWGKLYL; Peptide with targeting and/or antimicrobial activity) [Peptide 1T-256]", "values": [{"measurement": "Target(s)", "setting": "[3]", "result": "S. sanguinis"}]}
{"substance": "PF-438 (QPYFQNQFKKITGYTPLQYRKEKR; Peptide with targeting and/or antimicrobial activity)", "values": [{"measurement": "Target(s) (microorganisms bound by the targeting peptide)", "setting": "[1]", "result": "S. epidermidis; also recorded: E. coli; also recorded: S. pneumoniae; also recorded: C. jeikeium; also recorded: C. jejuni"}]}
{"substance": "PF-S023 (MAEDERRALKRRTNRGRTRTRKRITV; Peptide with targeting and/or antimicrobial activity)", "values": [{"measurement": "Target(s) (microorganism bound by the targeting peptide)", "setting": "[1]", "result": "S. epidermidis and MRSA"}]}
{"substance": "1T-62 (GCKGCAQRDPCAEPEPYFRLR; Peptide with targeting and/or antimicrobial activity) [Peptide 1T-62]", "values": [{"measurement": "Target(s) (microorganism bound by the targeting peptide)", "setting": "[2]", "result": "S. epidermidis; also recorded: P. aeruginosa"}]}
{"substance": "1T-216 (FFLNVIAIRIPHF; Peptide with targeting and/or antimicrobial activity) [Peptide 1T-216]", "values": [{"measurement": "Target(s)", "setting": "[3]", "result": "S. sanguinis"}]}
{"substance": "PF-781 (PLVVVNHRRAERSRG; Peptide with targeting and/or antimicrobial activity)", "values": [{"measurement": "Target(s) (microorganism bound by the targeting peptide)", "setting": "[1]", "result": "Mycobacteria spp."}]}
{"substance": "PF-671 (TVSAFRTVH; Peptide with targeting and/or antimicrobial activity)", "values": [{"measurement": "Target(s) (microorganism bound by the targeting peptide)", "setting": "[1]", "result": "S. mutans; also recorded: E. coli"}]}
{"substance": "PF-207 (AAGCRDLGSLSSLVTNPS; Peptide with targeting and/or antimicrobial activity)", "values": [{"measurement": "Target(s)", "setting": "[4]", "result": "M. luteus; also recorded: C. jeikeium"}]}
{"substance": "PF-701 (PRGAQSGHG; Peptide with targeting and/or antimicrobial activity)", "values": [{"measurement": "Target(s) (microorganism bound by the targeting peptide)", "setting": "[1]", "result": "S. mutans"}]}
{"substance": "1T-113 (HGAHQRTGQRLHHHRGRTVSGCRQNPVAGVDPDEHR; Peptide with targeting and/or antimicrobial activity) [Peptide 1T-113]", "values": [{"measurement": "Target(s) (microorganism bound by the targeting peptide)", "setting": "[2]", "result": "S. mitis"}]}
{"substance": "1T-4 (LDAYGELVGGN; Peptide with targeting and/or antimicrobial activity) [Peptide 1T-4]", "values": [{"measurement": "Target(s) (microorganism bound by the targeting peptide)", "setting": "[2]", "result": "S. gordonii; also recorded: S. sanguinis; also recorded: S. oxalis; also recorded: V. atypica; also recorded: L. casei; also recorded: S. mutans"}]}
{"substance": "PF-340 (VKDVLLELFNKIIGA; Peptide with targeting and/or antimicrobial activity)", "values": [{"measurement": "Target(s)", "setting": "[4]", "result": "S. mutans; also recorded: E. coli"}]}
{"substance": "PF-S015 (IENLERGARRPP; Peptide with targeting and/or antimicrobial activity)", "values": [{"measurement": "Target(s) (microorganism bound by the targeting peptide)", "setting": "[1]", "result": "S. epidermidis and MRSA and C. jeikeium"}]}
{"substance": "PF-147 (RRPRRRRSGHGQSASAA; Peptide with targeting and/or antimicrobial activity)", "values": [{"measurement": "Target(s)", "setting": "[4]", "result": "S. epidermidis and M. luteus and MRSA"}]}
{"substance": "PF-256 (EYFKQVYVKNEKIYSFWICKDLSPKEAAKRAEDILVKLK; Peptide with targeting and/or antimicrobial activity)", "values": [{"measurement": "Target(s)", "setting": "[4]", "result": "S. epidermidis"}]}
{"substance": "1T-126 (QGLARPVLRRIPL; Peptide with targeting and/or antimicrobial activity) [Peptide 1T-126]", "values": [{"measurement": "Target(s) (microorganism bound by the targeting peptide)", "setting": "[2]", "result": "S. gordonii; also recorded: S. mitis; also recorded: S. mutans"}]}
{"substance": "AIEGVIKKGACFKLLRHEMF [PF-167]", "values": [{"measurement": "Target(s)", "setting": "[4]", "result": "S. epidermidis and E. coli and C. albicans and MRSA and C. jeikeium and C. jejuni"}]}
{"substance": "PF-263 (NLKKCPC; Peptide with targeting and/or antimicrobial activity)", "values": [{"measurement": "Target(s)", "setting": "[4]", "result": "S. epidermidis; also recorded: M. luteus; also recorded: A. baumannii"}]}
{"substance": "PF-242 (KLFEDPLIKSKAVENFQTTWHEQCLAKELAKNM; Peptide with targeting and/or antimicrobial activity)", "values": [{"measurement": "Target(s)", "setting": "[4]", "result": "S. mutans; also recorded: E. coli"}]}
{"substance": "PF-735 (YDPLFPNDKN; Peptide with targeting and/or antimicrobial activity)", "values": [{"measurement": "Target(s) (microorganism bound by the targeting peptide)", "setting": "[1]", "result": "S. mutans; also recorded: E. coli"}]}
{"substance": "PF-490 (RLILVSGNATVQK; Peptide with targeting and/or antimicrobial activity)", "values": [{"measurement": "Target(s) (microorganisms bound by the targeting peptide)", "setting": "[1]", "result": "S. mutans; also recorded: E. coli"}]}
